Measured values as given in patent US20260007639A1, “COMPOUNDS FOR THE TREATMENT OF NEUROMUSCULAR DISORDERS” (NMD PHARMA A/S, priority 2017, published 2026).
Where two headings read alike, the source gives them in different places.

Assays:
rat soleus muscles [1] = test: Recovery of force in isolated rat soleus nerve-muscle preparations after 115 nM tubocurarine, 50 μM compound (Table 8); conditions: 40 mins exposure
Protocol: Force traces from a representative muscle stimulated to contract in 1) control condition before addition of neuromuscular blocking agent, 2) the force response to stimulation after 90 minutes incubation with Tubocurarine. […] The traces presented in FIG. 12A (1, 2, 3), correspond to the dotted lines in FIG. 12B, respectively.
Recovery of force is quantified as the percentage of the force prior to tubocurarine that is recovered by the compound.
The current invention relates to compounds that inhibit CIC-1 ion channels and increase muscle excitability and thereby improve muscle function in clinical conditions where muscle activation is failing. Such conditions result in loss of contractile function of skeletal muscle, weakness and excessive fatigue. In this series of experiments the compounds were tested for their ability to restore contractile function of isolated rat muscle when the neuromuscular transmission had been compromised akin to neuromuscular disorders.
Experimentally, soleus muscles from 4-5 wk old rats were isolated with the motor nerve remaining attached. The nerve-muscle preparations were mounted in experimental setups that enabled electrical stimulation of the motor nerve. Stimulation of the motor nerve led to activation of the muscle fibres and ensuing force production that was recorded.
After mounting the nerve-muscle preparation in the experimental setup, the contractile function of the muscle was initially assessed under the control conditions (FIG. 2A). […] The experimental condition mimics the failing neuromuscular transmission in a range of neuromuscular disorders. After addition of tubocurarine the contractile force declined over the next 90 mins to 10-50% of the control force. 50 μM of the test compound was then added and the contractile force recovered despite the continued presence of tubocurarine. To quantify the ability of the compound to restore force the percentage of the initial force that was restored was determined after 40 mins of compound exposure (FIG. 2B) and the point increase is reported in Table 8.

human CIC-1 channels = biological target: T1, human CIC-1 channels (Homo sapiens, UniProt P35523); test: Automated patch-clamp on human CIC-1 expressed in CHO cells: shift of half activation voltage ΔV1/2; type: cell-based; conditions: compound in intracellular solution vs control cell patches; CHO cells expressing human CIC-1
T1 construct: host or cells: CHO (Chinese hamster ovary) cells constitutively expressing human ClC-1
Protocol: FIGS. 13A-13B: FIG. 13A illustrates the voltage protocol used to evoke currents in whole cell patches of CHO cells expressing human CIC-1 channels.
Experiments were performed using an automated patch clamp system that allowed high throughput testing of whole cell patches together with both intracellular and extracellular addition of compound.
Automated whole cell patch clamp experiments were performed with the Qpatch 16 system (Sophion Bioscience, Ballerup, Denmark) at room temperature. Data acquisition and analysis were performed in the Qassay software (ver. 5.6, Odense).
To evoke CIC-1 currents in whole cell patches, the membrane potential was initially stepped from a holding potential of −30 mV to +60 mV for 100 ms and then to various test voltages (sweeps) ranging from +120 mV to −140 mV in steps of 20 mV for 300 ms. To obtain tail currents, the membrane potential was stepped to −100 mV after each test voltage for 300 ms and then relaxed to −30 mV for 2 sec between sweeps (FIG. 3).
I/V relationships for whole cell instant and steady state current amplitudes were obtained by plotting average current densities at the beginning and at the end of the 300 ms step against the membrane potential (FIG. 4).
In order to determine the relative overall open probability (Po), the instantaneous tail currents were normalized to the maximal tail current obtained following the most positive voltage step and plotted against the test voltage. Plots of normalized tail currents from each whole cell patch were then fitted to a Boltzmann function allowing determination of half activation voltages (V1/2, FIG. 5).
For automated patch clamp experiments extracellular solutions contained: 2 mM CaCl2), 1 mM MgCl2, 10 mM HEPES, 4 mM KCl, 145 mM NaCl, 10 mM Glucose, pH adjusted to 7.4 with NaOH (2 M). Osmolality adjusted to ˜320 using sucrose.
Intracellular solutions contained: 80 mM CsF, 60 mM CsCl, 5/1 mM KOH/EGTA, 10 mM HEPES, 10 mM NaCl, pH adjusted to 7.2 with NaOH (2 M). Osmolality adjusted to ˜320 mOsm using sucrose.
Cells used in patch clamp experiments were Chinese hamster ovary cells (CHO) constitutively expressing human CIC-1 channels. The amino acid sequence encoded by the cDNA used to create this cell line was identical to the translated sequence for GenBank accession number NM_000083.2. Cells were produced by Charles River (Catalogue CT6175, Cleveland OH, USA) in a cryopreserved format. Experiments were performed on the cells directly after thawing (3×10^6 cells used in each experiment).
To evaluate the compound effect on CIC-1, when applied directly to the intracellular side of the cell membrane, the half activation voltage, V1/2, was determined from whole cell patches with compound added to the intracellular solution and then compared to V1/2 determined from control cell patches with only vehicle added to the intracellular solution. Additionally, the effect of extracellular added compound was evaluated by determine V1/2 and steady state current amplitudes before and after exchanging the extracellular solution to contain compound.
The difference in half activation voltage of CIC-1 channels, ΔV1/2, was determined as the difference between the cell patches treated intracellularly with compound and control cells patches and is reported in Table 4 below. A positive shift in ΔV 1/2 is reflecting CIC-1 channel inhibition by the tested compound. P-values of <0.05 is considered significant.

CIC-1 channels = biological target: T2, CIC-1 channels (Rattus norvegicus, UniProt P35524); test: Electrophysiological measurement of compound inhibition of CIC-1 (Gm) in rat soleus muscle fibres: EC50 (Table 7)
T2 sequence (P35524 1-994): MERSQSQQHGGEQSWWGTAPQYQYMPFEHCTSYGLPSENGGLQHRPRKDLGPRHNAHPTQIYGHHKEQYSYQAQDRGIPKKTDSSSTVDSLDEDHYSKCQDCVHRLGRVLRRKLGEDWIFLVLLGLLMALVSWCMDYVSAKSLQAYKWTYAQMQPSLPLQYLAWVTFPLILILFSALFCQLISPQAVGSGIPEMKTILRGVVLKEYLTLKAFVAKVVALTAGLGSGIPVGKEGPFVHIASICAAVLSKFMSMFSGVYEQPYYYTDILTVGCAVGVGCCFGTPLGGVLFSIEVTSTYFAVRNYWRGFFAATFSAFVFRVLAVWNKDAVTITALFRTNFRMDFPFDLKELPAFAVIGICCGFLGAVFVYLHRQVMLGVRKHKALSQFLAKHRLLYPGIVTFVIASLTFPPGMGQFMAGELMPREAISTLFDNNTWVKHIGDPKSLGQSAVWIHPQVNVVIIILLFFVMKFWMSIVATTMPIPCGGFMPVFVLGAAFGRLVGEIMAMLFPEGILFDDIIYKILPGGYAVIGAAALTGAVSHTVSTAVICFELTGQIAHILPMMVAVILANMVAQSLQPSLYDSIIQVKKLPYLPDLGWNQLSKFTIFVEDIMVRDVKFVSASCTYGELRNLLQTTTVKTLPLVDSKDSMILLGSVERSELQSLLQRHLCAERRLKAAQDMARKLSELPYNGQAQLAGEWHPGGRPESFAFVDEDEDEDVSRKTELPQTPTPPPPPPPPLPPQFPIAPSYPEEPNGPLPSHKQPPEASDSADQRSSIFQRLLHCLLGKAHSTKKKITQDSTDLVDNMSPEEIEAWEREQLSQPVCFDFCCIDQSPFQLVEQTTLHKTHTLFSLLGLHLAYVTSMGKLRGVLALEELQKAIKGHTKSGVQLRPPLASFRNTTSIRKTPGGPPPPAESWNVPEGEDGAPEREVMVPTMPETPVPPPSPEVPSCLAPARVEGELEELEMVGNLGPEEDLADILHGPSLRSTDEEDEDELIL

rat soleus muscles [2] = test: Recovery of nerve-stimulated force in isolated rat soleus muscles exposed to sub-maximal tubocurarine (Table 1); conditions: for 500 μM % change after addition (AUC force): 500 μM compound
Protocol: The motor nerve was stimulated every 10 min for 2 s with 30 Hz with field stimulation using short duration pulses. […] Traces are shown before addition tubocurarine, after 40 min with tubocurarine, and after 110 min tubocurarine. […] This recovery of force was used in Table 1.
Experiments were performed using rat soleus muscles from either young (4-wk-old) or adult Wistar rats (12-14-week-old). Animal handling, killing and isolation of muscle is described elsewhere All experiments were performed using normal Krebs-Ringer bicarbonate solution (NKR). In solutions with elevated Mg^2+, MgCl^2 was added to NKR-solution causing minor increases in osmolarity and ionic strength. In solutions with elevated K^+, 4 mM NaCl was replaced by 4 mM KCl in the NKR.
In all contraction experiments, isometric force production was determined and force produced during contractions was quantified by measuring the integral of the force response (AUC). Stimulation and force recordings have been described elsewhere. […] In these latter experiments, extracellular recordings of action potentials (M-waves) could be measured without temporal overlap with stimulation artefacts.
The aim was to find compounds that by inhibition of CIC-1 channels can recover nerve-stimulated force under conditions of fatigue including conditions where fatigue is caused by compromised neuromuscular transmission. Neuromuscular transmission dysfunction can develop because of both pre- and/or post-synaptic complications in connection with a disorder or as part of neuromuscular blockade during/after surgery. In the initial series of drug testing, experiments were performed with isolated muscles in the presence of sub-maximal ACh receptor antagonist tubocurarine. Since the inclusion of tubocurarine caused a partial loss of neuromuscular transmission this experiment mimics the conditions in myasthenia gravis and neuromuscular blockade. To mimic conditions with pre-synaptic complication (Lambert Eaton syndrome, motor neuron disorder, polyneuropathy) the intact nerve-muscle preparations were incubated at elevated extracellular Mg^2+, which is known to suppress release of ACh from nerve terminals of motor neurons. […]
For comparison with the muscle only exposed to tubocurarine (grey trace), the two traces have been overlaid. […] For comparison, muscles only exposed to tubocurarine have been included. The dotted line indicates the recovery of force with C8 when compared to the force production before its addition. This value was used in Table 1 for evaluation of the efficacy of the different compounds in recovering force.

[3] = 150 μM compound, % change in AUC compared to AUC before addition, after 40 min in tubocurarine
[4] = % change in AUC compared to AUC before addition, after 40 min in tubocurarine

T1 sequence (P35523 whole entry): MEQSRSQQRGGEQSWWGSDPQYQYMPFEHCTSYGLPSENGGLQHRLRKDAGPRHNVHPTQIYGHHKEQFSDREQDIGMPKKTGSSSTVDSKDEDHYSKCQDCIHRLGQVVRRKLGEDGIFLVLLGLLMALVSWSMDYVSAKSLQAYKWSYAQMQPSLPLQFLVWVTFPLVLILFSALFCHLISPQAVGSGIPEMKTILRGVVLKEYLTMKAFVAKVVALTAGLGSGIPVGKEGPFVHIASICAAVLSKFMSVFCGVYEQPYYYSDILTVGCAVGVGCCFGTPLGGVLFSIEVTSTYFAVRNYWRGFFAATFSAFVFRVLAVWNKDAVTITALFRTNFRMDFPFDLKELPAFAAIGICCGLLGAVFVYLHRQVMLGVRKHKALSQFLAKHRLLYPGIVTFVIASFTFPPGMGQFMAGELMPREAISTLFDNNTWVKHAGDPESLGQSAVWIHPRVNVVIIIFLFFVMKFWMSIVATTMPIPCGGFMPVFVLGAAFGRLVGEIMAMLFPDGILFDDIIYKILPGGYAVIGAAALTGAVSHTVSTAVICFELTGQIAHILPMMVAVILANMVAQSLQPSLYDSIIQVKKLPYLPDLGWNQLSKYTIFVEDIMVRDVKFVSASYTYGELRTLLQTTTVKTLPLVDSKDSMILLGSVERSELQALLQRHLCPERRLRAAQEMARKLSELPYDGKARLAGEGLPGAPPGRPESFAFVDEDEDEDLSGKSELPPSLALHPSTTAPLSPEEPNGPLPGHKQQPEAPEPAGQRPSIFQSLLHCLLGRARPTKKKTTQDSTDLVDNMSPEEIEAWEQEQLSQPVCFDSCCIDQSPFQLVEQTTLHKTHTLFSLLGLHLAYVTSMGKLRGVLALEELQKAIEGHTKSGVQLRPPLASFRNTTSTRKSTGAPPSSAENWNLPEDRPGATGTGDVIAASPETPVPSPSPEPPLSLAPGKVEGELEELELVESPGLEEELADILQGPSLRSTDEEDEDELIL

Row | Compound | Point increase (%) of initial force that was restored (rat soleus muscles [1]) | Δ1/2 (mV) (human CIC-1 channels) | EC50 (CIC-1 channels) | 150 μM % change after addition (AUC force) (rat soleus muscles [2]; [3]) | 500 μM % change after addition (AUC force) (rat soleus muscles [2]; [4]) | further results
1 | CC[C@H](Oc1ccc(Br)cc1-c1ccon1)C(=O)O [Compound A-2, (2S)-2-[4-bromo-2-(1,2-oxazol-3-yl)phenoxy]butanoic acid] | 27% | 7.2 mV | 4.3 µM |  |  | 
2 | CC(C(=O)O)S(=O)(=O)c1ccc(F)cc1 (stereo not drawn) [Compound C6, 2-(4-fluorobenzenesulfonyl)propanoic acid] |  |  |  | −8% | 9% | 
3 | C[C@H](OCc1ccccc1)C(=O)O [Compound C5, (2S)-2-(benzyloxy)propanoic acid] |  |  |  | 1% | 42% | 
4 | C[C@H](Oc1ccc(Cl)cc1-c1ccon1)C(=O)O [Compound A-34, (2S)-2-[4-chloro-2-(1,2-oxazol-3-yl)phenoxy]propanoic acid] | 43% | 8.1 mV | 2 µM |  |  | 
5 | C[C@H](Oc1ccc(Cl)cc1-c1ccsn1)C(=O)O [Compound A-83, (2S)-2-[4-chloro-2-(1,2-thiazol-3-yl)phenoxy]propanoic acid] |  | 10.3 mV |  |  |  | 
6 | C[C@H](Oc1ccc(Br)cc1-c1ccon1)C(=O)O [Compound A-16, (2S)-2-[4-bromo-2-(1,2-oxazol-3-yl)phenoxy]propanoic acid] | 48% | 14.1 mV | 1.8 ± 1.1 µM |  |  | 
7 | C[C@H](Oc1ccc(Br)cc1-c1cocn1)C(=O)O [Compound A-42, (2S)-2-[4-bromo-2-(1,3-oxazol-4-yl)phenoxy]propanoic acid] | 14% | 6.8 mV | 3.2 µM |  |  | 
8 | CCC(Oc1ccc(Cl)cc1)C(=O)O (stereo not drawn) [Compound C7, 2-(4-chlorophenoxy)butanoic acid] |  |  |  | 0% | 40% | 
9 | C[C@H](Oc1ccc(Br)cc1-c1nncs1)C(=O)O [Compound A-65, (2S)-2-[4-bromo-2-(1,3,4-thiadiazol-2-yl)phenoxy]propanoic acid] |  | 12.8 mV |  |  |  | 
10 | Cl.NCC(Oc1ccc(F)cc1)C(=O)O (stereo not drawn) [Compound C9, 3-amino-2-(4-fluorophenoxy)propanoic acid hydrochloride] |  |  |  | −13% | 5% | 
11 | O=C(O)[C@H](CC1CC1)Oc1ccc(Br)cc1-c1ccon1 [Compound A-33, (2S)-2-[4-bromo-2-(1,2-oxazol-3-yl)phenoxy]-3-cyclopropylpropanoic acid] | 35% | 15.1 mV | 4.6 µM |  |  | 
12 | COCC(C)C(Oc1ccc(Br)cc1)C(=O)O (stereo not drawn) [Compound C21, 2-(4-bromophenoxy)-4-methoxy-3-methylbutanoic acid] |  |  |  | 7% | 36% | 
13 | O=C(O)[C@H](CF)Oc1cc(F)c(Br)cc1-c1ccon1 [Compound A-63, (2R)-2-[4-bromo-5-fluoro-2-(1,2-oxazol-3-yl)phenoxy]-3-fluoropropanoic acid] | 23% |  | 10.8 µM |  |  | 
14 | C[C@H](Oc1ccc(Cl)cc1-c1csnn1)C(=O)O [Compound A-62, (2S)-2-[4-chloro-2-(1,2,3-thiadiazol-4-yl)phenoxy]propanoic acid] | 17% |  | 9.4 µM |  |  | 
15 | CC(Oc1ccc(Cl)cc1)C(=O)Oc1ccc(Cl)cc1 (stereo not drawn) [Compound C11, 4-chlorophenyl 2-(4-chlorophenoxy)propanoate] |  |  |  |  |  | 50 μM % change after addition (AUC force) (rat soleus muscles [2]): 46%; 150 μM % change after addition (AUC force) (rat soleus muscles [2]): 54%
